# Columns and labels:
# Type in all cases: biochemical
# [1] = biological target: T1, SirT6 (Homo sapiens, UniProt Q8N6T7); test: Determination of Kd of DNA for SirT6 activation by HPLC (Example 2); conditions: 800 μM NAD, 480 μM H3, 10 μM SirT6, 2 hours 37° C.; fit Activation (fold)=1+m*x/(Kd+x)
# T1 construct: The protein expression and purification were the same as the full length SIRT6 as described above; made in house; host or cells: E. coli BL21 Codon-plus RIPL
# Description: FIG. 5A depicts a schematic of DNA structure. […] After 2 hours incubation at 37° C., either the deacetylated H3 was separated from H3 in the reaction containing the digested calf thymus DNA or AADPR was separated from other components in the reaction containing ssDNA, the plasmid, or dsDNA.
# The plasmid pSTBlue was digested with BamHI and EcoRV and purified by […]™ III kit. […] The AADPR was separated by HPLC and the quantified data were fit into Michaelis-Menten equation to get Km of H3.
# In the enzymatic reaction, the following DNA was used.
# Calf thymus DNA (USB Corporation), which was digested with EcoRI and then purified using Spinprep Gel DNA Kit (Novagen);
# ssDNA (5′ […] 3′ (SEQ ID NO: 9), Integrated DNA Technologies);
# dsDNA (forward 5′ […] 3′ (SEQ ID NO: 10), reverse 5′ […] 3′ (SEQ ID NO: 11), Integrated DNA Technologies); and
# pSTBlue plasmid, which was amplified using DH5α cells and purified by WIZARD™ PLUS (Midiprep) DNA purification system (Promega).
# The precipitated proteins and other insolubles were removed by centrifugation at 15,000 rpm for 5 minutes. DNA in the supernatant was further removed by centrifugation at 15,000 rpm for 10 minutes using Microcon with 10 kDa cutoff (Millipore). In the experiment with the digested calf thymus DNA, the peptides were separated by a Waters Xterra RP-18 column using a gradient of 0-30% acetonitrile in 0.1% trifluoroacetic acid. […]
# [2] = biological target: T2, SirT1 (Homo sapiens, UniProt Q96EB6); test: SirT1 deacetylation, Km of H3 with and without ssDNA; conditions: 100 ng/μl ssDNA
# T2 sequence (Q96EB6 1-747): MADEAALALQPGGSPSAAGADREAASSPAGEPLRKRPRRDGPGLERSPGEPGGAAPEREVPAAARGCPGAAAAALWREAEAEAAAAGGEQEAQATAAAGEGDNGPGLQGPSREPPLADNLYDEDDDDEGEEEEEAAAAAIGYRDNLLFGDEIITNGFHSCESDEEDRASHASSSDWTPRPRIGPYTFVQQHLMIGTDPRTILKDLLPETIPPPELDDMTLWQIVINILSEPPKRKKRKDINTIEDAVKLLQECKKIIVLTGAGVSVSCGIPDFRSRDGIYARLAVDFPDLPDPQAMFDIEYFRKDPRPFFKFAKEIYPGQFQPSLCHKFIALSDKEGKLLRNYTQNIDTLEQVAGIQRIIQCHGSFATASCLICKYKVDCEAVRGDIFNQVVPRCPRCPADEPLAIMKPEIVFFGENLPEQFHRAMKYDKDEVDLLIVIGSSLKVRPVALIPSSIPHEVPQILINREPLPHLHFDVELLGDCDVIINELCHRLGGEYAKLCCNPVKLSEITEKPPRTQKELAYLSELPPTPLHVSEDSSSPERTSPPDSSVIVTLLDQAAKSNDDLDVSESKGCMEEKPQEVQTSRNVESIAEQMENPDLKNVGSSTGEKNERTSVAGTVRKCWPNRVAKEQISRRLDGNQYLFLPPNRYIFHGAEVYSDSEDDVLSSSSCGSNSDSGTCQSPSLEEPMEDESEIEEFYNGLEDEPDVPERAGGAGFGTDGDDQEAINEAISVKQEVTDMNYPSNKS
# Excerpt: The quantified data were fit into Michaelis-Menten equation to get Km of H3.
# [3] = biological target: T3, truncated SirT6 (deletion of N terminal 17 amino acids) (Homo sapiens, UniProt Q8N6T7); test: Deacetylation rate of truncated SirT6 with suramin or single stranded DNA; conditions: 50 μM suramin or 100 ng/μl single stranded DNA; 800 μM NAD, 480 μM H3, 10 μM enzyme
# T3 construct: The truncated SIRT6 was cloned similarly with the full length SIRT6; poly-histidine (pET28a) (N); made in house; host or cells: E. coli BL21 Codon-plus RIPL
# T3 sequence (Q8N6T7 with tags, fused parts or gaps): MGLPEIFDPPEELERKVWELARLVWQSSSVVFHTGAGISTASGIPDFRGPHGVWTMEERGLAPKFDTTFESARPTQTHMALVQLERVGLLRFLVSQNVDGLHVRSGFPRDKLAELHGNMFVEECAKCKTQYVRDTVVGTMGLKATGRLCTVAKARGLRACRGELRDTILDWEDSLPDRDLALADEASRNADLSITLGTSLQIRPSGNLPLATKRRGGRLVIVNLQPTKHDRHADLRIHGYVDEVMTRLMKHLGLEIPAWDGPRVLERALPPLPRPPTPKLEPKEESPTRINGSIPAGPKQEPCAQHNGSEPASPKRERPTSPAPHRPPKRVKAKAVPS
# Excerpt: The deacetylation rate of different truncated SirT6 was normalized to the rate of full length SirT6 for the comparison.
# The truncated SIRT6 was cloned similarly with the full length SIRT6. The primers used in the cloning of different truncated SIRT6 are the following: SIRT6Δ2-7 Forward 5′ GCTAGC ATGGGGCTGTCGCCGTACGCG 3′ (SEQ ID NO: 4); SIRT6Δ2-12 Forward 5′ GCTAGC ATG […] 3′ (SEQ ID NO: 5); SIRT6Δ2-18 Forward 5′ GCTAGC ATGGGCCTCCCGGAGATCTTCGAC 3′ (SEQ ID NO: 6); SIRT6Δ2-51 Forward 5′ 5′ GCTAGC ATGACGGGTGCCGGCATCAGCACT 3′ (SEQ ID NO: 7). The common reverse primer is 5′[…] 3′ (SEQ ID NO: 8). The truncated SIRT6 was amplified by PCR reaction. The PCR product was then ligated into pSTblue-1 (Novagen). After digestion with NheI and BamHI, the fragment containing SIRT6 gene was ligated into pET28a vector (Novagen). The SIRT6 truncated sequence in pET28a plasmid was confirmed by DNA sequencing, and the plasmid was then transformed into BL21Codon-plus RIPL cells (Stratagene). The protein expression and purification were the same as the full length SIRT6 as described above.
# T1 sequence (Q8N6T7 whole entry): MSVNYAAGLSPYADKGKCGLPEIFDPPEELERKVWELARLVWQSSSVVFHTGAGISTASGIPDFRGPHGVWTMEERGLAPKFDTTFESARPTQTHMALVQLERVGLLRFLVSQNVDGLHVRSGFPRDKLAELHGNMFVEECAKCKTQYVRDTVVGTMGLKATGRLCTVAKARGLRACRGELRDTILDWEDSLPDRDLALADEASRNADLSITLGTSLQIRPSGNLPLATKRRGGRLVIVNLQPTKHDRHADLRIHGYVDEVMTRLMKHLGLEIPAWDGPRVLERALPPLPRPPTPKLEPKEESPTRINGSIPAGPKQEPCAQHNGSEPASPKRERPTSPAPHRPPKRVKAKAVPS
substance,measurement,setting,value
"ssDNA: ssDNA 5′ GGGGATCCATGAAGATGAGCTTTGCGTTGACT 3′ (SEQ ID NO: 9), Integrated DNA Technologies (DNA, backbone and methylation of C not given here)",Kd of DNA for activation of SirT6,[1],127.7 µg/mL
same,Deacetylation activity of SirT1,[2],not activated
same,Activation of truncated SirT6 deacetylation,[3],lost of activation

# From patent US9322049B2, “Activation and activators of SirT6” (CORNELL UNIVERSITY, priority 2009, dated 2016)
